Data: publication PMC5053523, “In Vitro Antibacterial Activity of Rhodanine Derivatives against Pathogenic Clinical Isolates” (PLoS ONE, 2016)
Converted amounts (≈) assume the structure as drawn. Like-named read-outs stand apart in the source and are kept apart here.

Legend:
[1] = tested on: vancomycin resistant enterococci (VRE) E. faecium; test: Broth microdilution MIC/MBC, VRE E. faecium; type: cell-based; conditions: for MIC: read-out: MIC
B. cereus = test: Broth microdilution MIC/MBC, B. cereus; type: cell-based; conditions: Bacillus cereus; for MBC: read-out: MBC; for MIC: read-out: MIC
Description: The broth microdilution technique was used, followed by subculturing on agar plates that were rhodanine—free.

Bacillus Strains = test: Broth microdilution MIC50/MIC90 and MIC range, Bacillus strains panel; type: cell-based, Bacillus spp.; conditions: 10 Bacillus strains
Description: The broth microdilution technique was used, followed by subculturing on agar plates that were rhodanine—free. […] The MICs reported represent the lowest concentration of each compound necessary to inhibit bacterial growth and the MBCs represent the lowest concentration required to reduce the initial bacterial inoculum by ≥ 99.9%.

Mycobacterium smegmatis = test: Broth microdilution MIC/MBC, Mycobacterium smegmatis; type: cell-based; conditions: Mycolicibacterium smegmatis, ATCC14468, M. Smegmatis ATCC 14468
Acinetobacter baumannii = test: MIC with/without sub-MIC colistin, Acinetobacter baumannii; type: cell-based
Protocol: (§1) The MIC of the rhodanines and control antibiotics, in the presence of a sub-inhibitory concentration of colistin or polymixin B nonapeptide (PMBN), against Gram-negative bacteria was evaluated as described before. The antibacterial activity of the rhodanines was further investigated against E. coli SM1411Δ acrAB, a strain that is deficient in the multidrug-resistant AcrAB efflux pump, as described before.

Escherichia coli O157:H7 [2] = test: MIC with/without sub-MIC colistin, Escherichia coli O157:H7; type: cell-based
Protocol: as §1

Salmonella Typhimurium = test: MIC with/without sub-MIC colistin, Salmonella Typhimurium; type: cell-based
Protocol: as §1

Klebsiella pneumoniae = test: MIC with/without sub-MIC colistin, Klebsiella pneumoniae; type: cell-based
Protocol: as §1

Pseudomonas aeruginosa [3] = test: MIC with/without sub-MIC colistin, Pseudomonas aeruginosa; type: cell-based
Protocol: as §1

Escherichia coli O157:H7 [4] = test: MIC with/without PMBN, Escherichia coli O157:H7; type: cell-based
Protocol: as §1

Pseudomonas aeruginosa [5] = test: MIC with/without PMBN, Pseudomonas aeruginosa; type: cell-based
Protocol: as §1

Escherichia coli Δ acrAB = test: MIC against E. coli 1411 and AcrAB efflux pump deficient E. coli SM1411Δ acrAB; type: cell-based
Protocol: as §1

[6] = E. faecium HM 968 Strain ERV102
[7] = E. faecium NR31914 Strain E0120
[8] = E. faecium Patient #1–1 NR-31903
[9] = NRS201, B. cereus NRS 201 NR-2488

## CC(=O)NC[C@H]1CN(c2ccc(N3CCOCC3)c(F)c2)C(=O)O1 [Linezolid, linezolid, reference compound]
[1]; E. faecium E417 HM-965
  MBC: > 64 µM
  MIC: 2 µM (≈ 0.675 µg/mL)
[1]; E. faecium E1071 NR-28978
  MBC: > 64 µM
  MIC: 2 µM (≈ 0.675 µg/mL)
[1]; [6]
  MBC: > 64 µM
  MIC: 2 µM (≈ 0.675 µg/mL)
[1]; [7]
  MBC: > 64 µM
  MIC: 2 µM (≈ 0.675 µg/mL)
[1]; [8]
  MBC: > 64 µM
  MIC: 16 µM (≈ 5.4 µg/mL)
B. cereus; B. cereus BAG1O-2 NR-28582
  MBC: 2 µM (≈ 0.675 µg/mL)
  MIC: 2 µM (≈ 0.675 µg/mL)
B. cereus; B. cereus BAG1X1-1 NR-28575
  MBC: 1 µM (≈ 0.337 µg/mL)
  MIC: < 0.5 µM
B. cereus; B. cereus BAG1X2-1 NR-28578
  MBC: 2 µM (≈ 0.675 µg/mL)
  MIC: 1 µM (≈ 0.337 µg/mL)
B. cereus; B. cereus G9241 NR-9564
  MBC: 1 µM (≈ 0.337 µg/mL)
  MIC: 1 µM (≈ 0.337 µg/mL)
B. cereus; B. cereus VD014 NR-22141
  MBC: 4 µM (≈ 1.35 µg/mL)
  MIC: 2 µM (≈ 0.675 µg/mL)
B. cereus; B. cereus VD115 NR-22148
  MBC: 1 µM (≈ 0.337 µg/mL)
  MIC: < 0.5 µM
B. cereus; B. cereus VD148 NR-22150
  MBC: 2 µM (≈ 0.675 µg/mL)
  MIC: 2 µM (≈ 0.675 µg/mL)
B. cereus; [9]
  MBC: 4 µM (≈ 1.35 µg/mL)
  MIC: 2 µM (≈ 0.675 µg/mL)
Bacillus Strains
  MIC50: 1 µM (≈ 0.337 µg/mL)
  MIC90: 2 µM (≈ 0.675 µg/mL)
Mycobacterium smegmatis; read-out: MBC
  MBC: 8 µM (≈ 2.7 µg/mL)
Mycobacterium smegmatis; read-out: MIC
  MIC: 4 µM (≈ 1.35 µg/mL)
Acinetobacter baumannii; Acinetobacter baumannii ATCC BAA747, colistin (+) […], read-out: MIC
  MIC: >64 µM
Acinetobacter baumannii; Acinetobacter baumannii ATCC BAA19606, colistin (+) […], read-out: MIC
  MIC: >64 µM
Acinetobacter baumannii; Acinetobacter baumannii, ATCCBAA747
  MIC: > 128 µM
Acinetobacter baumannii; Acinetobacter baumannii, ATCCBAA19606
  MIC: > 128 µM
Escherichia coli O157:H7 [2]; Escherichia coli O157:H7 ATCC 35150, colistin (+) […], read-out: MIC
  MIC: ≤0.5 µM
Escherichia coli O157:H7 [2]; Escherichia coli O157:H7 ATCC 700728, colistin (+) […], read-out: MIC
  MIC: 4 µM (≈ 1.35 µg/mL)
Escherichia coli O157:H7 [2]; Escherichia coli, ATCC35150
  MIC: > 128 µM
Escherichia coli O157:H7 [2]; Escherichia coli, ATCC700728
  MIC: > 128 µM
Salmonella Typhimurium; Salmonella Typhimurium ATCC 700720, colistin (+) […], read-out: MIC
  MIC: >64 µM
Salmonella Typhimurium; Salmonella enterica, ATCC 700720 / TYPHIMURIUM
  MIC: > 128 µM
Klebsiella pneumoniae; Klebsiella pneumoniae ATCC BAA 2146, colistin (+) […]
  MIC: >64 µM
Klebsiella pneumoniae; Klebsiella pneumoniae, BAA2146
  MIC: > 128 µM
Pseudomonas aeruginosa [3]; Pseudomonas aeruginosa ATCC 921, colistin (+) […], read-out: MIC
  MIC: 64 µM (≈ 21.6 µg/mL)
Pseudomonas aeruginosa [3]; Pseudomonas aeruginosa, ATCC921
  MIC: > 128 µM
Escherichia coli O157:H7 [4]; Escherichia coli O157:H7 ATCC 35150, PMBN (+) 4 μg/mL, read-out: MIC
  MIC: >256 µM
Escherichia coli O157:H7 [4]; Escherichia coli O157:H7 ATCC 700728, PMBN (+) 4 μg/mL, read-out: MIC
  MIC: 128 µM (≈ 43.2 µg/mL)
Escherichia coli O157:H7 [4]; Escherichia coli, ATCC35150
  MIC: > 256 µM
Escherichia coli O157:H7 [4]; Escherichia coli, ATCC700728
  MIC: > 128 µM
Pseudomonas aeruginosa [5]; Pseudomonas aeruginosa ATCC 9721, PMBN (+) 4 μg/mL, read-out: MIC
  MIC: 16 µM (≈ 5.4 µg/mL)
Pseudomonas aeruginosa [5]; Pseudomonas aeruginosa, ATCC9721
  MIC: > 128 µM
Escherichia coli Δ acrAB; E.coli 1411
  MIC: > 64 µM
Escherichia coli Δ acrAB; E.coli 1411 SM (Δ acrAB, AcrAB efflux pump deficient)
  MIC: 16 µM (≈ 5.4 µg/mL)
